Reference: patent US8106024B2, “Method of treating cancer with an RPN2 gene expression inhibitor” (Taisho Pharmaceutical Co., Ltd., priority 2006, dated 2012)

Legend:
PC-9/CDDP cell = test: Caspase activity in cisplatin-resistant lung cancer cells; format: cell-based, human; conditions: 3 days
Protocol: (§1) A reagent for measurement of apoptosis was added to the plate after the measurement of the luciferase activity in Test Example 1, and the Caspase activity was measured. […] The Caspase activation rate was calculated with the control siRNA as 0%.
To suppress RPN2 gene expression RPN2 siRNA was transduced into PC-9/CDDP cell which is a cell line of human lung cancer ([…], differentiated gland cancer), and resistant to cisplatin (Cis) that is a anti-cancer drug. Then, the cell was cultured for 3 days in the presence of or in the absence of cisplatin (0.3 μM). Then, Caspase activity was measured in the same way as described in Test Example 2. In addition, for comparison, the same test was conducted also for the system to which control siRNA not suppressing any gene expression was introduced.

Luciferase gene (GL3) = test: siRNA introduction efficiency (suppression of luciferase activity); format: cell-based; conditions: MCF7-ADR-Luc, atelocollagen transfection array
Protocol: Luciferase gene (GL3) was stably transfected into multidrug-resistant MCF7-ADR cells of which the parental Cell line is MCF7 breast cancer cell. The cell line was expressing luciferase and designated as MCF7-ADR-Luc.
The MCF7-ADR-LUC cell obtained in (2) was inoculated into the array prepared in (1) in 4×10^3 cell number/well, and cultured for 3 days in the presence of 1 nM docetaxel (DOC). To the live cells were added luciferin, and from the luminescence value, cell growth inhibition rate and luciferase siRNA introduction efficiency were measured.
Moreover, siRNA introduction efficiency was evaluated with the suppression rate of the luciferase activity by introduction of luciferase siRNA (GL3siRNA: dsRNA including a sense chain of Sequence No. 7 and an antisense chain of Sequence No. 8), separately from siRNA corresponding to each gene. In addition, luciferin (0.5 mM final concentration: Promega KK) was added to the medium, and the luciferase activity was measured immediately by a luminescence plate reader (ARVO: PerkinElmer, Inc.). Introduction of GL3 siRNA suppressed the luciferase activity by 80% in comparison with the control siRNA.

MCF7-ADR-Luc cells [1] = test: Apoptosis induction test, Caspase-3/7 activity; format: cell-based; conditions: 3 days
Protocol: as §1
After 3 days, Caspase activity was measured in the same way as described in Test Example 2.

MCF7-ADR-Luc cells [2] = test: Apoptosis induction test, Hoechst staining; format: cell-based; conditions: vs control siRNA
Protocol: Moreover, in addition to the Caspase activity, apoptosis induction was investigated with observation by Hoechst staining (the cells were washed with PBS (−), added with 4% PFA-0.1% Triton X-100-1 mg/ml Hoechst 33342/in PBS (−), and fixed and stained at room temperature for 20 minutes. The cells were washed with PBS (−), and then observed under fluorescence microscope.).

RPN2 gene [3] = test: RPN2 gene expression suppression test (real-time PCR); format: cell-based; conditions: MCF7-ADR-Luc, 3 days, atelocollagen transfection array; remaining expression
Protocol: Into the atelocollagen cell transfection array prepared in Test Example 1 (1) were inoculated MCF7-ADR-Luc cells. After 3 days, cDNA was synthesized directly from the cell lysate, and real-time PCR was conducted, to investigate the RPN2 gene expression amount (SuperScript III Platinum CellsDirect Two-Step qRT-PCR: Invitrogen).

MCF7-ADR-Luc cells [4] = test: Tumor growth test in a nude mouse; format: in vivo; conditions: 1 nmol siRNA/atelocollagen per tumor intratumoral + 20 mg/kg docetaxel i.p., 7 days after dosing, vs control siRNA
Protocol: According to the protocol shown in FIG. 6, 1×10^7 MCF7-ADR-Luc cells suspended in 100 μl PBS (−) were transplanted into the mammary fat pad of the nude mouse (4 weeks old, scalpel). After 7 days when the tumor radius reached about 5 mm, siRNA and DOC were administered. Herein, atelocollagen in the final concentration of 5 mg/ml (w/vol) and siRNA in 1 nmol per tumor were mixed, and then 200 μl of atelocollagen (manufactured by KOKEN CO., LTD.)/siRNA was administered into the tumor. At the same time, 20 mg/kg of docetaxel was administered into the abdominal cavity. After 7 days, the tumor radius was measured to compare the tumor volumes.

RPN2 gene [5] = test: RPN2 gene expression suppression test in a nude mouse (real-time RT-PCR of tumor); format: in vivo; conditions: 1 nmol siRNA/atelocollagen per tumor + 20 mg/kg docetaxel, tumor collected after 1 day
Protocol: 1×10^7 MCF7-ADR-Luc cells suspended in 100 μl PBS (−) were transplanted into the mammary fat pad of the nude mouse (4 weeks old, scalpel). After 7 days, RPN2 siRNA and DOC were administered. Herein, atelocollagen in the final concentration of 5 mg/ml (w/vol) and RPN2 siRNA in 1 nmol per tumor were mixed, and then 200 μl of atelocollagen/siRNA was administered into the tumor. At the same time, 20 mg/kg of docetaxel was administered into the abdominal cavity. After 1 day, the tumor was collected and the total RNA was isolated, and RPN2 gene expression amount was measured with real-time RT-PCR (SYBR ExScript RT-PCR Kit: TaKaRa, LightCycler Real-Time PCR System: F. Hoffmann-La Roche Ltd.).
The RPN2 gene expression amount was measured in the same method as Test Example 5 except that RPN2 siRNA and DOC were administered at 6 weeks after MCF7-ADR-Luc cells were transplanted into the mammary fat pad of the nude mouse (4 weeks old, scalpel).

MCF7-ADR-Luc cells [6] = test: Apoptosis induction test in a nude mouse (TUNEL staining); format: in vivo; conditions: dosed 6 weeks after transplant; siRNA/atelocollagen intratumoral + 20 mg/kg docetaxel; tumor collected after 4 days
Protocol: 1×10^7 MCF7-ADR-Luc cells suspended in 100 μl PBS (−) were transplanted into the mammary fat pad of the nude mouse (4 weeks old, scalpel). After 6 weeks, siRNA and DOC, or siRNA alone was administered. Atelocollagen in the final concentration of 5 mg/ml (w/vol) and siRNA in 1 nmol per tumor were mixed, and then 200 μl of atelocollagen/siRNA was administered into the tumor. At the same time, 20 mg/kg of docetaxel was administered into the abdominal cavity. After 4 days, the tumor was collected, and subjected to TUNEL staining (In Situ Cell Death Detection Kit: F. Hoffmann-La Roche Ltd.). The nucleus was subjected to counter staining with DAPI (4′,6-diamidino-2-phenylindole).

HepG2 = test: Cell survival in human liver cancer cells (CellTiter-Glo); format: cell-based
Protocol: HepG2, which is a cell line of human liver cancer, was inoculated into a 96 well plate in 5000/well. […] The control siRNA (dsRNA including a sense chain of Sequence No. 5 and an antisense chain of Sequence No. 6) was introduced as the negative control. At the same time with the siRNA, DOC was added in 1 nM of the final concentration. After the culture for 3 days, in order to determine the cell survival rate in each well, a quantification reagent for the live cells (CellTiter-Glo substrate: Promega KK) was added to each well, and the plate was stirred for 2 minutes, and left for 10 minutes. The luminescence was measured by a luminescence plate reader (ARVO: PerkinElmer).

In the case of `N.N.[Cl][Pt][Cl]` [cisplatin, reference compound], the “Caspase activity, Cis+ versus Cis−” value (PC-9/CDDP cell; control siRNA system, cisplatin 0.3 μM) is reported as “no difference”.

“GL3 siRNA: luciferase siRNA: dsRNA including a sense chain of Sequence No. 7 and an antisense chain of Sequence No. 8 (sense CUUACGCUGAGUACUUCGANN; antisense UCGAAGUACUCAGCGUAAGNN; chemistry not given here; listed as Homo sapiens)” was tested, and the “suppression of luciferase activity in comparison with the control siRNA” value (Luciferase gene (GL3)) was 80%.

With “RPN2 siRNA: dsRNA including a sense chain of Sequence No. 3 and an antisense chain of Sequence No. 4 (sense GGCCACUGUUAAACUAGAACA; antisense UUCUAGUUUAACAGUGGCCUG; listed as RNA, chemistry not given here; listed as Homo sapiens)” the Caspase activity (MCF7-ADR-Luc cells [1]; 1 nM docetaxel, vs control siRNA) was “induced strongly”, the “Caspase activity (apoptosis)” value (MCF7-ADR-Luc cells [1]; in the absence of DOC) was “apoptosis is induced” and the “nucleus morphology by Hoechst staining (aggregation, fragmentation)” value (MCF7-ADR-Luc cells [2]) was “apoptosis is induced”. For the same compound, the “RPN2 gene expression suppressed to” value (RPN2 gene [3]) was “about 25%”, the tumor volume (MCF7-ADR-Luc cells [4]) was “significant tumor shrinkage” and the “RPN2 gene expression suppressed by, in comparison with control siRNA group” value (RPN2 gene [5]; dosed 6 weeks after transplant) was “about 40%”. For the same compound, the “RPN2 gene expression suppressed by, in comparison with control siRNA group” value (RPN2 gene [5]; dosed 7 days after transplant) was “about 20%”, the “apoptosis cells in tumor (TUNEL staining)” value (MCF7-ADR-Luc cells [6]) was “many apoptosis cells were found” and the “Caspase activity (apoptosis)” value (PC-9/CDDP cell; cisplatin-treated (0.3 μM, Cis+)) was “significant apoptosis was induced”. For the same compound, the “Caspase activity (apoptosis increase)” value (PC-9/CDDP cell; cisplatin-untreated (Cis−)) was “slight”, the “cancer cell growth suppression (luminescence intensity, RLU)” value (HepG2; HepG2, siRNA alone, Lipofectamine 2000, 3 days) was “showed cancer cell growth suppression effects alone” and the “cancer cell growth suppression (luminescence intensity, RLU)” value (HepG2; HepG2, siRNA with 1 nM DOC, 3 days) was “potentiating the cancer cell growth suppression effects of DOC”.
